What was measured:
[1] = biological target: T1, human norepinephrine transporter (Homo sapiens, UniProt P23975); assay: hNET receptor binding ([125I]-RTI-55, membranes of transfected HEK-293 cells); conditions: 50 pM [125I]-RTI-55, 90 min room temperature; IC50 converted by Cheng-Prusoff
T1 construct: host or cells: HEK-293
Outline: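 Competition binding on membranes from HEK-293 cells transfected with human NET, using 50 pM [125I]-RTI-55 in Krebs-HEPES pH 7.4, drug 10^−5 to 10^−12 M in duplicate, 90 min at room temperature, filtration. Nonspecific binding defined with 10 μM desipramine; IC50 converted to Ki by Cheng-Prusoff.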

[2] = biological target: T2, human serotonin transporter (Homo sapiens, UniProt P31645); assay: hSERT receptor binding ([125I]-RTI-55, membranes of transfected HEK-293 cells); conditions: 50 pM [125I]-RTI-55, 90 min room temperature; IC50 converted by Cheng-Prusoff
T2 construct: host or cells: HEK-293
Outline: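 Membranes of HEK-293 cells expressing human SERT incubated 90 min at room temperature with 50 pM [125I]-RTI-55 and compound (10^−5 to 10^−12 M) in Krebs-HEPES, pH 7.4. Nonspecific binding defined with 10 μM citalopram; IC50 converted to Ki by Cheng-Prusoff.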

T1 sequence (P23975 whole entry): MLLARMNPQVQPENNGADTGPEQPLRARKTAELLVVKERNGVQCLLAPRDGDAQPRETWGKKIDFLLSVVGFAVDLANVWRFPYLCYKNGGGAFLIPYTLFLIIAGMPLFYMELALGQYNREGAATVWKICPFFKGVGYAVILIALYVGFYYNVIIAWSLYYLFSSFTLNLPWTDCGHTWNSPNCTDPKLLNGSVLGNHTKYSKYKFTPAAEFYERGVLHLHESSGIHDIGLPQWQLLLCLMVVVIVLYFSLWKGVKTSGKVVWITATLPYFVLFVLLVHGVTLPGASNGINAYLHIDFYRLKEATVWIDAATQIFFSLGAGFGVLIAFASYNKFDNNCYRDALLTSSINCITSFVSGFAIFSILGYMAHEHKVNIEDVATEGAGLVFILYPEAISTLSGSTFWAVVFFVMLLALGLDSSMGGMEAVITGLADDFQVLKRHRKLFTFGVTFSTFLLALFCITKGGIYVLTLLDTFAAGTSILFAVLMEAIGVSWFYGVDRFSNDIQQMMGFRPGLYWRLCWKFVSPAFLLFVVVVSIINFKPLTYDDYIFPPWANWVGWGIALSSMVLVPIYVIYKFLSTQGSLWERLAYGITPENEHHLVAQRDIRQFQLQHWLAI
T2 sequence (P31645 whole entry): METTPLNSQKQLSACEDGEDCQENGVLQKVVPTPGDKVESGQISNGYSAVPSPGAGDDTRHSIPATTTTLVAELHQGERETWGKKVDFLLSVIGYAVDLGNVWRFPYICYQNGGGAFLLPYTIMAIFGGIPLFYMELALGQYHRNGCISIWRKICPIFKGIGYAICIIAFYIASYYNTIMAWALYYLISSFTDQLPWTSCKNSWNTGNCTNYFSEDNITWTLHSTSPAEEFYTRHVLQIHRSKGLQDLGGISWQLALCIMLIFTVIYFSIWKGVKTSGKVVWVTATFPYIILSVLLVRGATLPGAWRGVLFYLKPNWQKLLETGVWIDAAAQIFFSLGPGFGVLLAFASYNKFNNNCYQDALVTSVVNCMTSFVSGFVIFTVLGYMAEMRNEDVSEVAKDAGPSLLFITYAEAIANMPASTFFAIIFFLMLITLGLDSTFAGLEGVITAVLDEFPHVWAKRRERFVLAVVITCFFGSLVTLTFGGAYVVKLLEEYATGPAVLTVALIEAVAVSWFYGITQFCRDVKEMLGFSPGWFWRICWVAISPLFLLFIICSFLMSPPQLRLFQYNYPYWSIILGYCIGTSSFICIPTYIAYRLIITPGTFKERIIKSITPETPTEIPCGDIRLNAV

Structure (SMILES)	Ki [1] [nM]	Ki [2] [nM]	melting point [°C]
Cl.Fc1ccccc1-c1nc(N2CCNCC2)nc2ccccc12 [Example 20, 4-(2-Fluoro-phenyl)-2-piperazin-1-yl-quinazoline hydrochloride]	1.7	12	276 to 277
COC(=O)C1(c2nc(-c3ccccc3F)c3ccccc3n2)CCNCC1.Cl [Example 51, 4-[4-(2-Fluoro-phenyl)-quinazolin-2-yl]-piperidine-4-carboxylic acid methyl ester hydrochloride]	15.1		210 to 211
COC(=O)C1(c2nc(-c3ccccc3)c3ccccc3n2)CCCNC1.Cl (stereo not drawn) [Example 52, 3-(4-Phenyl-quinazolin-2-yl)-piperidine-3-carboxylic acid methyl ester hydrochloride]	53.4		143 to 145
c1ccc(-c2nc(N3C4CCC3CNC4)nc3ccccc23)cc1 [Example 56, 2-(3,8-Diaza-bicyclo[3.2.1]oct-8-yl)-4-phenyl-quinazoline]	5		278 to 280
Fc1ccc2c(-c3ccccc3F)nc(N3CCNCC3)nc2c1 [Example 59, 7-Fluoro-4-(2-fluoro-phenyl)-2-piperazin-1-yl-quinazoline]	2.7		147 to 148

Further lines, results first:

Ki [1] [nM]	Ki [2] [nM]	melting point [°C]	Structure (SMILES)
41		107 to 108	CC1CN(c2nc(-c3ccccc3)c3ccccc3n2)CCN1 (stereo not drawn) [Example 54, 2-(3-Methyl-piperazin-1-yl)-4-phenyl-quinazoline]
4		203 to 206	Fc1cccc(-c2nc(N3CCCNCC3)nc3ccccc23)c1F [Example 57, 2-[1,4]Diazepan-1-yl-4-(2,3-difluoro-phenyl)-quinazoline]

From patent US20050096327A1, “Novel norepinephrine reuptake inhibitors for the treatment of central nervous system disorders” (priority 2003, published 2005)
